Results on 5 compounds are retold here after patent US20060035940A1, “(S)-Amlodipine malate” (Sepracor Inc., priority 2004, published 2006).

Data set [1] in a line: Adhesion studies (tablet punch surfaces, blends with Avicel PH 101). Format: physicochemical. On the procedure: Avicel PH 101 and each (S)-amlodipine salt were pre-screened through a 25-mesh sieve to delump the powders prior to blending. […] Approximately 500 mg was weighed into the ½-inch tablet die, a tablet punch was added and 0.2 metric tons of pressure was applied using a Carver press for 2-3 seconds. The tablet was then removed, and the surfaces of the tablet punches (concave, SRC) were washed with mobile phase (1 mL). The wash was then assayed by HPLC. Three measurements were made for each blend.

A short description of data set [2]: Moisture balance (VTI SGA-100 sorption isotherm). Type of data set: physicochemical. The note with it: equilibrated at 95% RH (sorption range 5% to 95% RH). On the procedure:
Moisture-sorption data were collected on a VTI SGA-100 moisture balance system. […] The sample was not dried prior to analysis. Equilibrium criteria used for analysis were less than 0.0100 weight-percent change in 5 minutes with a maximum equilibration time of 3 hours if the weight criterion was not met. The data were not corrected for the initial moisture content of the sample.

Another data set is described as follows: Solid state stability. Type of data set: physicochemical. As to conditions: 60° C./75% RH. The procedure:
Individual samples were prepared and stored at 25° C./60% RH and 40° C./75% RH. Samples stored at 60° C./75% RH were packaged in uncapped glass vials. All samples were analyzed for assay and impurity by HPLC.

The format of data set [3] is physicochemical. The note with it: for pH of saturated solution: DI H2O, ambient temperature.
Source text: The solution was sampled periodically, filtered using a 0.2 μm PTFE syringe filter and assayed by HPLC.
The sample was filtered through a 0.2 μm filter and assayed by HPLC.
Data set [4] can be described thus: Hygroscopicity and desolvation studies of crystal forms (XRPD). Format: physicochemical. The note with it: 31, 75, 84 and 95% relative humidity, approximately one week. On the procedure:
Hygroscopicity studies were performed by placing portions of a select form in a 11, 32, 45, 66, 75, 84% or 95% relative humidity (RH) chamber for approximately one to three weeks. Desolvation studies were carried out by heating each form in an 80° C. oven for approximately one week. Interconversion experiments were carried out by making slurries containing two forms in a saturated solvent. The slurries were agitated for approximately seven days at ambient temperature. The insoluble solids were recovered by filtration and analyzed using XRPD.

A short description of data set [5]: TGA, water content and moisture sorption profiles. Type of data set: physicochemical. On the procedure:
Moisture Sorption Isotherms: Moisture sorption isotherms were generated using VTI SGA-100 symmetric vapor sorption analyzer. Samples were not pre-dried. Equilibrium criteria were the lesser of 0.01 wt % change in 5 minutes or 180 minutes at each RH step. Temperature was fixed at 25° C. and the relative humidity steps (25% to 95% to 25%) were in 5% increments. In FIG. 27, adsorption data is shown as a solid line with desorption data connected by a dashed line. Water Content: Water content was determined by coulometric titration using an EM Science Aquastar® C300 Karl Fischer titrator. TGA: Samples were analyzed using Perkin Elmer TGA 7 thermal gravimetric analyzer at a heating rate of 10° C./min.

Where [6] appears, read: 5% (S)-Amlodipine salt in Avicel.
The mark [7] stands for this setting: 25% (S)-Amlodipine salt in Avicel.

Counter-ions that a name gives are not always drawn. Like-named read-outs stand apart in the source and are kept apart here.

`O=C(O)[C@H](O)[C@@H](O)C(=O)O` [(L)-Tartrate]: the Adhesion in data set [1] (setting [6]) was 9.3E−07 g (S)-amlodipine/cm^2; in data set [1] (setting [7]), 4.9E−06 g (S)-amlodipine/cm^2.

As for `CCOC(=O)C1=C(COCCN)NC(C)=C(C(=O)OC)[C@@H]1c1ccccc1Cl.O=C(O)C(O)C(O)C(=O)O` [(S)-amlodipine D-tartrate], the results for the Adhesion in data set [1] (setting [6]) and in data set [1] (setting [7]) were 6.0E−07 g (S)-amlodipine/cm^2 and 2.8E−06 g (S)-amlodipine/cm^2, respectively.

As to `CCOC(=O)C1=C(COCCN)NC(C)=C(C(=O)OC)[C@@H]1c1ccccc1Cl` [(S)-amlodipine maleate], the results for the Adhesion in data set [1] (setting [6]) and in data set [1] (setting [7]) were 5.8E−07 g (S)-amlodipine/cm^2 and 3.9E−06 g (S)-amlodipine/cm^2, respectively.

Regarding `CCOC(=O)C1=C(COCCN)NC(C)=C(C(=O)OC)C1c1ccccc1Cl.O=C(O)CC(O)C(=O)O` [form D′, (S)-Amlodipine-D-malate], the “increase in weight (moisture balance)” value in data set [2] is recorded as 0.3%.

For the compound (S)-amlodipine L-malate, the Adhesion is 4.9E−07 g (S)-amlodipine/cm^2 in data set [1] (setting [6]) and 2.6E−06 g (S)-amlodipine/cm^2 in data set [1] (setting [7]). In data set [1] (blended at typical levels with Avicel), the “adhesion to solid dosage form manufacturing equipment compared to other salts” value was “decreased adhesion”. Also, the “time for which solid was fairly stable” value in the data set “Solid state stability” was > 2 months. Also, the “pH of saturated solution” value in data set [3] (initial salt screen) is given as 4.0; in data set [3] (more recent sample) it was 3.56. The “Free Base Concentration (solubility)” value came out at 6000 µg/mL in data set [3] (pH 3.56) and 10100 µg/mL in data set [3] (pH 4). For the same compound, the “Malate Concentration (solubility)” value in data set [3] (pH 3.56) was found to be 8000 µg/mL; in data set [3] (pH 4), 13400 µg/mL. In addition, the “increase in weight (moisture balance)” value in data set [2] stood at 0.5%. Moreover, the “crystal form after hygroscopicity study” value in data set [4] is listed as “remained unchanged”. The “Moisture Desorption” value in data set [5] (at 25% RH, 25° C.) stood at 0.06 % wt remaining. The “Moisture Adsorption” value in data set [5] (at 95% RH, 25° C.) was 0.24 % wt gain. Further, the KF water content in data set [5] (coulometric Karl Fischer) is 0.13 % H2O. The same compound returned a TGA in data set [5] (heating rate 10° C./min) of 0.14 % wt loss. Moreover, the hygroscopicity result in data set [5] (moisture sorption, TGA and Karl Fischer data) is on record as “not hygroscopic”.
